Measured values as given in publication PMC6407576, “Synthesis and evaluation of anticancer, antiphospholipases, antiproteases, and antimetabolic syndrome activities of some 3H-quinazolin-4-one derivatives” (Journal of Enzyme Inhibition and Medicinal Chemistry, 2019).

Key:
elastase = assay: In vitro antiprotease activity; type: biochemical; conditions: 15 min preincubation
Method: (§1) The inhibitory effects of 21 3H-quinazolin-4-one derivatives on several available therapeutically important proteases such as cathepsin-B, collagenase, elastase, thrombin, and trypsin were investigated. […] The protease inhibitory activity was expressed as inhibition percentage, which was determined by comparison with a control experiment. The results were expressed as IC50 values that were determined from the standard curve. A protease inhibitor cocktail (Sigma) was used as the positive control.

collagenase = assay: In vitro antiprotease activity; type: biochemical; conditions: 15 min preincubation
Method: as §1

trypsin = molecular target: T1, trypsin (Bos taurus, UniProt P00760); assay: In vitro antiprotease activity; type: biochemical; conditions: 15 min preincubation; read-out: mean IC50 against Trypsin (converted)
T1 construct: gene PRSS1
T1 sequence (P00760 24-246): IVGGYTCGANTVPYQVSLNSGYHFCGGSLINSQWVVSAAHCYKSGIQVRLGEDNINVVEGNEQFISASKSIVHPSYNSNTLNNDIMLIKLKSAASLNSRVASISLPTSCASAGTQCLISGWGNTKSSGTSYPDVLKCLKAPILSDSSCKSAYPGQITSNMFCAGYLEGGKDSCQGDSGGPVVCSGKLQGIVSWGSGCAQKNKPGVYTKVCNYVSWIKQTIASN
Method: as §1

cathepsin-B = cathepsin-B (Homo sapiens, UniProt P07858); assay: In vitro antiprotease activity; type: biochemical; conditions: 15 min preincubation; read-out: mean IC50 against Cathepsin-B (converted)
Method: as §1

thrombin = thrombin (Homo sapiens, UniProt P00734); assay: In vitro antiprotease activity; type: biochemical; conditions: 15 min preincubation; read-out: mean IC50 against Thrombin (converted)
Method: as §1

[1] = molecular target: Apis mellifera bee venom (AmPLA2) (Apis mellifera, UniProt P00630); assay: biochemical
Apis mellifera bee venom (AmPLA2), sequence (P00630 34-167 limits assumed): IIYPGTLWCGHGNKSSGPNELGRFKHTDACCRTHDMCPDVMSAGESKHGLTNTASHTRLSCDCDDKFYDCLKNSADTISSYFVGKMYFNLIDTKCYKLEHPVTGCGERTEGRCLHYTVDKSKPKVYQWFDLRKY

xanthine oxidase = xanthine oxidase (Homo sapiens, UniProt P47989); assay: In vitro inhibition of xanthine oxidase; type: biochemical
xanthine oxidase, sequence (P47989 whole entry, species assumed): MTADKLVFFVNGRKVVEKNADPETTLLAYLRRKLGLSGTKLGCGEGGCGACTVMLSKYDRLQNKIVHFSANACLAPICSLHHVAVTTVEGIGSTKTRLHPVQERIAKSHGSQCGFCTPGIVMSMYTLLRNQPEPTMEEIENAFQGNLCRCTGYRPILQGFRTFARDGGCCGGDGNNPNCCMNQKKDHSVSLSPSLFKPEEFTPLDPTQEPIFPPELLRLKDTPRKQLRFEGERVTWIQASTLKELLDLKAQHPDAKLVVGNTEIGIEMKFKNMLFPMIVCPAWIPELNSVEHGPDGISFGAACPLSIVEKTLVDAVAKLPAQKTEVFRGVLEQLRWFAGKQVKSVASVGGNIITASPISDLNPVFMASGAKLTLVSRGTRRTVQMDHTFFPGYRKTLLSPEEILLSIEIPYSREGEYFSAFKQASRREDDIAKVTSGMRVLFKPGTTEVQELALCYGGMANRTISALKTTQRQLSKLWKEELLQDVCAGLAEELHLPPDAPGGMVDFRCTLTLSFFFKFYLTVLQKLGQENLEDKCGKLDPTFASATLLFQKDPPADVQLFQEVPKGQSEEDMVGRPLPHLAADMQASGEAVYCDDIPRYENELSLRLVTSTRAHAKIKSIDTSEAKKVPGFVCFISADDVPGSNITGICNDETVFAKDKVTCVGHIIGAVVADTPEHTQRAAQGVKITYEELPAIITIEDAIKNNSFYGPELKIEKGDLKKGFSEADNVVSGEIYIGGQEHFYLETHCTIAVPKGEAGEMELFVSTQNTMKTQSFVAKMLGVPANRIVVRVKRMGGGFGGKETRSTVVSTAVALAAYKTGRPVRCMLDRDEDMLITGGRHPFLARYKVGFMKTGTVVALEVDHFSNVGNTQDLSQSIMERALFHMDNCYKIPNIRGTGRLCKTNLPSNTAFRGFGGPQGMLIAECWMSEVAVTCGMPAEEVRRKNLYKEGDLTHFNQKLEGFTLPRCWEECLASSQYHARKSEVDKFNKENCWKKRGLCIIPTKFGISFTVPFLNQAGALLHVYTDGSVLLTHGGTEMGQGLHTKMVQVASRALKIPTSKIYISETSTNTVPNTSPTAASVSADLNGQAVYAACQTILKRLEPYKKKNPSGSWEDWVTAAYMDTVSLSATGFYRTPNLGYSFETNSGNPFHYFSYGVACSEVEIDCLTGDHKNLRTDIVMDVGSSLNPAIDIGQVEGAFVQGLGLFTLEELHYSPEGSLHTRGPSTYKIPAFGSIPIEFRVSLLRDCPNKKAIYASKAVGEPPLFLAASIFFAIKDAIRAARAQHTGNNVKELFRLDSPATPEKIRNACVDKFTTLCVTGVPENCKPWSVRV
Method: The xanthine oxidase inhibitory activities of the examined chemical compounds were determined by following the formation of uric acid from xanthine according to the reported method by Bondet and co-workers[46]. […] The results were expressed as IC50 determined from the curve.

[2] = molecular target: Naja mossambica mossambica sPLA2 (NmPLA2); assay: In vitro antiphospholipase activity; type: biochemical; conditions: 20 min preincubation, lecithin substrate, pH 7.6
[3] = molecular target: T2, human group V (hG-V) sPLA2 (Homo sapiens, UniProt P39877); assay: In vitro antiphospholipase activity; type: biochemical; conditions: 20 min preincubation, lecithin substrate, pH 7.6; for IC50: read-out: mean IC50 against hG-V (converted)
T2 sequence (P39877 21-138): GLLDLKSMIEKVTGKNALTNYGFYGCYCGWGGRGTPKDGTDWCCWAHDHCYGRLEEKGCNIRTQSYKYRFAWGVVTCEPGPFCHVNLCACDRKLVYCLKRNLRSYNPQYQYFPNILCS

[4] = molecular target: T3, human group IIA (hG-IIA) sPLA2 (Homo sapiens, UniProt P14555); assay: In vitro antiphospholipase activity; type: biochemical
T3 sequence (P14555 21-144): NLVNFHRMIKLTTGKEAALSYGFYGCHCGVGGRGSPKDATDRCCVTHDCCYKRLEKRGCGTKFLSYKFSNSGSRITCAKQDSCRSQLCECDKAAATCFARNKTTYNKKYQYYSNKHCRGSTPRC

[5] = molecular target: T4, human group X (hG-X) sPLA2 (Homo sapiens, UniProt O15496); assay: In vitro antiphospholipase activity; type: biochemical; conditions: 20 min preincubation, lecithin substrate, pH 7.6; for IC50: read-out: mean IC50 against hG-X (converted)
T4 sequence (O15496 43-165): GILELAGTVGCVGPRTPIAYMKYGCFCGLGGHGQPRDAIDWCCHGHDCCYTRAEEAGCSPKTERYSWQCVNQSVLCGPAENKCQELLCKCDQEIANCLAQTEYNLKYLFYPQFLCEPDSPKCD

SMILES	mean IC50 against Elastase (elastase) [µg/mL]	mean IC50 against Collagenase (collagenase) [µg/mL]	IC50 (trypsin) [µM]	IC50 (cathepsin-B) [µM]	IC50 (thrombin) [µM]	IC50 [1] [µM]	IC50 (xanthine oxidase) [µM]	mean IC50 against NmPLA2 [2] [µg/mL]	IC50 [3] [µM]	IC50 [4] [µM]	melting point [°C]	IC50 [5] [µM]	mean IC50 against hG-V [3] [µg/mL]	mean IC50 against hG-X [5] [µg/mL]
Cc1nc2ccccc2c(=O)n1/N=C/c1ccc(C#N)cc1 [Compound 8g, (E)-4-[(2-Methyl-4-oxo-4H-quinazolin-3-ylimino)-methyl]-benzonitrile]	11.00 ± 0.41	17.25 ± 1.77	46.8	25.1	48.6	46.8	257	12.75 ± 1.06	117	95.4	222 to 224	79.8	–	–
Cc1ccc2nc(SCC(=O)Nc3cccc(C)c3C)n(-c3ccccc3)c(=O)c2c1 [Compound 15f, N-(2,3-Dimethyl-phenyl)-2-(6-methyl-4-oxo-3-phenyl-3,4-dihydro-quinazolin-2-ylsulfanyl) -acetamide]	16.00 ± 1.41	10.50 ± 2.12	39.6	9.31	40.7	86.7	136	33.00 ± 2.83	70.1	90.8	218 to 220	51.2	–	–
Cc1nc2ccccc2c(=O)n1/N=C/c1ccc(-c2ccccc2)cc1 [Compound 8i]	13.50 ± 2.12	15.25 ± 1.06	36.8	10.3	51.6	27.7	25	11.00 ± 1.41	67.8	45.4	–	50.1	–	–
COc1cc(-n2c(C)nc3ccc(Cl)cc3c2=O)cc(OC)c1OC [Compound 5c, 6 -Chloro-2-methyl-3–(3,4,5-trimethoxy-phenyl)-3H-quinazolin-4-one]	1.75 ± 0.05	21.50 ± 2.12	6.24	34.6	6.93	12.6	36	5.15 ± 0.92	38.1	57.5	188 to 190	26.3	–	–
Cc1nc2ccc(Br)cc2c(=O)n1/N=C/c1ccc(-c2ccccn2)cc1 [Compound 8d, (E)-6-Bromo-2-methyl-3-[(4-pyridin-2-yl-benzylidene)-amino]-3H-quinazolin-4-one]	26.00 ± 1.41	3.00 ± 0.01	54.9	82.3	37	10.5	23.9	6.55 ± 0.78	22.3	13.7	209 to 210	15.7	–	–
Cc1nc2ccc(Br)cc2c(=O)n1/N=C/c1ccc2ccccc2c1 [Compound 8b, (E)-6-Bromo-2-methyl-3-[(naphthalen-2-ylmethylene)-amino]-3H-quinazolin-4-one]	21.50 ± 2.12	4.25 ± 1.06	65	54.8	42.1	18.5	25.5	16.25 ± 1.06	54.8	42.3	–	33.1	–	–
Cc1nc2ccccc2c(=O)n1/N=C/N(C)C [Compound 12, (E)-N,N-dimethyl-N′-(2-methyl-4-oxo-4H-quinazolin-3-yl)-formamidine]	8.50 ± 2.12	35.50 ± 2.12	56.5	119	23.9	122	91.2	35.00 ± 2.83	150	200	100 to 102	141	–	–
CC1(C)CC[C@]2(C(=O)O)CC[C@]3(C)C(=CC[C@@H]4[C@@]5(C)CC[C@H](O)C(C)(C)[C@@H]5CC[C@]43C)[C@@H]2C1 [Oleanolic acid, reference compound]	–	–	–	–	–	9.2	–	4.90 ± 0.42	–	–	–	–	7.50 ± 0.71	7.55 ± 0.64
Cc1nc2ccc(Br)cc2c(=O)n1/N=C/c1ccc(C#N)cc1 [Compound 8h, (E)-4-[(6-Bromo-2-methyl-4-oxo-4H-quinazolin-3-ylimino)-methyl]-benzonitrile]	27.50 ± 2.12	14.50 ± 2.12	91.2	10.9	66.7	79	154	22.90 ± 1.27	92.6	120	228 to 230	112	–	–
COc1cccc(/C=N/n2c(C)nc3ccccc3c2=O)c1[N+](=O)[O-] [Compound 8e, (E)-3-[(3-Methoxy-2-nitro-benzylidene)-amino]-2-methyl-3H-quinazolin-4-one]	1.25 ± 0.05	15.50 ± 2.12	2.51	6.95	4.43	22.5	102	7.75 ± 0.35	70.2	49.1	178 to 180	34.7	–	–
Cc1nc2ccccc2c(=O)n1NC(=O)OCC(C)C [Compound 10, (2-methyl-4-oxo-4H-quinazolin-3-yl)-carbamic acid isobutyl ester]	1.45 ± 0.21	28.00 ± 1.41	4	81.7	8.54	16.3	109	13.45 ± 0.78	62.7	56.3	168 to 170	34.5	–	–
Cc1cccc(NC(=O)CSc2nc3ccccc3c(=O)n2-c2ccccc2)c1C [Compound 15e]	31.50 ± 2.12	4.50 ± 0.71	81.8	3.85	57.8	21.1	98.7	11.00 ± 1.41	32.2	34.9	–	17.4	–	–
Cc1nc2ccccc2c(=O)n1/N=C/c1ccc(-c2ccccn2)cc1 [Compound 8c, (E)-2-Methyl-3-[(4-pyridin-2-yl-benzylidene)-amino]-3H-quinazolin-4-one]	32.00 ± 2.83	23.50 ± 0.71	103	36.7	69	16.5	11.8	7.60 ± 0.85	30.8	22.2	188 to 190	69.8	–	–
